Tests used:
barnyard grass [1] = test: Test Example 3: herbicidal effect by foliage application, Wagner pot (Table 18, symbol H); assay type: in vivo, barnyard grass (Echinochloa crus-galli); conditions: amount of applied herbicide 320 g/ha
In short: (§1)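 Plants were sown in alluvial soil held under 0.1–0.5 cm standing water and grown 14 days in a greenhouse at 25–30 °C. An emulsifiable formulation, water-diluted to the set dose, was then sprayed onto the foliage, and effects were scored three weeks later using previously defined criteria.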

Chinese sprangletop = test: Test Example 3: herbicidal effect by foliage application, Wagner pot (Table 18, symbol D); assay type: in vivo, chinese sprangletop (Leptochloa chinensis); conditions: amount of applied herbicide 320 g/ha
In short: as §1

rice flat sedge = test: Test Example 3: herbicidal effect by foliage application, Wagner pot (Table 18, symbol E); assay type: in vivo, rice flat sedge (Cyperus iria); conditions: amount of applied herbicide 320 g/ha
In short: as §1

southern crabgrass = test: Test Example 5: herbicidal effect by foliage application, plastic box (Table 20, symbol F); assay type: in vivo, southern crabgrass (Digitaria ciliaris); conditions: foliage application; for F: southern crabgrass, herbicidal effect (criteria 0-5): AAH 320 g/ha, evaluated three weeks after application
In short: (§2)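 Plants sown in sterilized diluvial soil and grown 14 days in a greenhouse at 25° C to 30° C, then sprayed on the foliage with the compound's emulsion diluted in water to a predetermined herbicide amount. Injury to weeds and crops scored three weeks after application on a visual rating scale.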

green foxtail = test: Test Example 5: herbicidal effect by foliage application, plastic box (Table 20, symbol G); assay type: in vivo, green foxtail (Setaria viridis); conditions: foliage application; for G: green foxtail, herbicidal effect (criteria 0-5): AAH 320 g/ha, evaluated three weeks after application
In short: as §2

barnyard grass [2] = test: Test Example 5: herbicidal effect by foliage application, plastic box (Table 20, symbol H); assay type: in vivo, barnyard grass (Echinochloa crus-galli); conditions: foliage application; for H: barnyard grass, herbicidal effect (criteria 0-5): AAH 320 g/ha, evaluated three weeks after application
In short: as §2

wild oat = test: Test Example 5: herbicidal effect by foliage application, plastic box (Table 20, symbol I); assay type: in vivo, wild oat (Avena fatua); conditions: foliage application; for I: wild oat, herbicidal effect (criteria 0-5): AAH 320 g/ha, evaluated three weeks after application
In short: as §2

blackgrass = test: Test Example 5: herbicidal effect by foliage application, plastic box (Table 20, symbol J); assay type: in vivo, blackgrass (Alopecurus myosuroides); conditions: foliage application; for J: blackgrass, herbicidal effect (criteria 0-5): AAH 320 g/ha, evaluated three weeks after application
In short: as §2

Italian ryegrass = test: Test Example 5: herbicidal effect by foliage application, plastic box (Table 20, symbol K); assay type: in vivo, Italian ryegrass (Lolium multiflorum); conditions: foliage application; for K: Italian ryegrass, herbicidal effect (criteria 0-5): AAH 320 g/ha, evaluated three weeks after application
In short: as §2

windgrass = test: Test Example 5: herbicidal effect by foliage application, plastic box (Table 20, symbol L); assay type: in vivo, windgrass (Apera spica-venti); conditions: foliage application; for L: windgrass, herbicidal effect (criteria 0-5): AAH 320 g/ha, evaluated three weeks after application
In short: as §2

velvetleaf = test: Test Example 5: herbicidal effect by foliage application, plastic box (Table 20, symbol M); assay type: in vivo, velvetleaf (Abutilon theophrasti); conditions: foliage application; for M: velvetleaf, herbicidal effect (criteria 0-5): AAH 320 g/ha, evaluated three weeks after application
In short: as §2

redroot pigweed = test: Test Example 5: herbicidal effect by foliage application, plastic box (Table 20, symbol N); assay type: in vivo, redroot pigweed (Amaranthus retroflexus); conditions: foliage application; for N: redroot pigweed, herbicidal effect (criteria 0-5): AAH 320 g/ha, evaluated three weeks after application
In short: as §2

lambsquarters = test: Test Example 5: herbicidal effect by foliage application, plastic box (Table 20, symbol O); assay type: in vivo, lambsquarters (Chenopodium album); conditions: foliage application; for O: lambsquarters, herbicidal effect (criteria 0-5): AAH 320 g/ha, evaluated three weeks after application
In short: as §2

chickweed = test: Test Example 5: herbicidal effect by foliage application, plastic box (Table 20, symbol P); assay type: in vivo, common chickweed (Stellaria media); conditions: foliage application; for P: chickweed, herbicidal effect (criteria 0-5): AAH 320 g/ha, evaluated three weeks after application
In short: as §2

persian speedwell = test: Test Example 5: herbicidal effect by foliage application, plastic box (Table 20, symbol R); assay type: in vivo, Persian speedwell (Veronica persica); conditions: foliage application; for R: persian speedwell, herbicidal effect (criteria 0-5): AAH 320 g/ha, evaluated three weeks after application
In short: as §2

[3] = 320 g/ha, three weeks after application

SMILES | herbicidal effect on H: barnyard grass (barnyard grass [1]) | herbicidal effect on D: Chinese sprangletop (Chinese sprangletop) | herbicidal effect on E: rice flat sedge (rice flat sedge) | F: southern crabgrass, herbicidal effect (criteria 0-5) (southern crabgrass) | G: green foxtail, herbicidal effect (criteria 0-5) (green foxtail) | H: barnyard grass, herbicidal effect (criteria 0-5) (barnyard grass [2]) | I: wild oat, herbicidal effect (criteria 0-5) (wild oat) | J: blackgrass, herbicidal effect (criteria 0-5) (blackgrass) | K: Italian ryegrass, herbicidal effect (criteria 0-5) (Italian ryegrass) | L: windgrass, herbicidal effect (criteria 0-5) (windgrass) | M: velvetleaf, herbicidal effect (criteria 0-5) (velvetleaf) | N: redroot pigweed, herbicidal effect (criteria 0-5) (redroot pigweed) | O: lambsquarters, herbicidal effect (criteria 0-5) (lambsquarters) | P: chickweed, herbicidal effect (criteria 0-5) (chickweed) | R: persian speedwell, herbicidal effect (criteria 0-5) (persian speedwell) | other results
Cc1nn(C)c(=O)c(-c2c(-c3ccc(OC(F)F)cc3)sc3ccc(F)cc23)c1OC(=O)C(C)(C)c1ccccc1 [2-282] | 3 (Herbicidal rate of 40% or more and less than 70%) | 0 (Herbicidal rate of 5% or less (almost no effect)) | 0 (Herbicidal rate of 5% or less (almost no effect)) | 0 (Herbicidal rate of 5% or less (almost no effect)) | 4 (Herbicidal rate of 70% or more and less than 90%) | 1 (Herbicidal rate of 5% or more and less than 20%) | 0 (Herbicidal rate of 5% or less (almost no effect)) | 0 (Herbicidal rate of 5% or less (almost no effect)) | 0 (Herbicidal rate of 5% or less (almost no effect)) | 0 (Herbicidal rate of 5% or less (almost no effect)) | 4 (Herbicidal rate of 70% or more and less than 90%) | 5 (Herbicidal rate of 90% or more (almost completely withered)) | 5 (Herbicidal rate of 90% or more (almost completely withered)) | 5 (Herbicidal rate of 90% or more (almost completely withered)) | 5 (Herbicidal rate of 90% or more (almost completely withered)) | 
Cc1nn(C)c(=O)c(-c2c(-c3ccc(OC(F)F)cc3)sc3ccc(F)cc23)c1OC(=O)SC(C)(C)C [2-296] | 5 (Herbicidal rate of 90% or more (almost completely withered)) | 2 (Herbicidal rate of 20% or more and less than 40%) | 3 (Herbicidal rate of 40% or more and less than 70%) | 0 (Herbicidal rate of 5% or less (almost no effect)) | 5 (Herbicidal rate of 90% or more (almost completely withered)) | 4 (Herbicidal rate of 70% or more and less than 90%) | 0 (Herbicidal rate of 5% or less (almost no effect)) | 3 (Herbicidal rate of 40% or more and less than 70%) | 1 (Herbicidal rate of 5% or more and less than 20%) | 0 (Herbicidal rate of 5% or less (almost no effect)) | 5 (Herbicidal rate of 90% or more (almost completely withered)) | 5 (Herbicidal rate of 90% or more (almost completely withered)) | 5 (Herbicidal rate of 90% or more (almost completely withered)) | 5 (Herbicidal rate of 90% or more (almost completely withered)) | 5 (Herbicidal rate of 90% or more (almost completely withered)) | 
Cc1nn(Cc2ccccc2)c(=O)c(-c2c(-c3ccc(C(F)(F)F)cc3)sc3ccc(F)cc23)c1O [2-436] | 3 (Herbicidal rate of 40% or more and less than 70%) | 0 (Herbicidal rate of 5% or less (almost no effect)) | 2 (Herbicidal rate of 20% or more and less than 40%) |  |  |  |  |  |  |  |  |  |  |  |  | F: southern crabgrass, herbicidal effect grade (southern crabgrass; [3]): 0 (Herbicidal rate of 5% or less (almost no effect)); G: green foxtail, herbicidal effect grade (green foxtail; [3]): 0 (Herbicidal rate of 5% or less (almost no effect)); H: barnyard grass, herbicidal effect grade (barnyard grass [2]; [3]): 0 (Herbicidal rate of 5% or less (almost no effect)); I: wild oat, herbicidal effect grade (wild oat; [3]): 0 (Herbicidal rate of 5% or less (almost no effect)); J: blackgrass, herbicidal effect grade (blackgrass; [3]): 0 (Herbicidal rate of 5% or less (almost no effect)); K: Italian ryegrass, herbicidal effect grade (Italian ryegrass; [3]): 0 (Herbicidal rate of 5% or less (almost no effect)); L: windgrass, herbicidal effect grade (windgrass; [3]): 0 (Herbicidal rate of 5% or less (almost no effect)); M: velvetleaf, herbicidal effect grade (velvetleaf; [3]): 0 (Herbicidal rate of 5% or less (almost no effect)); N: redroot pigweed, herbicidal effect grade (redroot pigweed; [3]): 3 (Herbicidal rate of 40% or more and less than 70%); O: lambsquarters, herbicidal effect grade (lambsquarters; [3]): 0 (Herbicidal rate of 5% or less (almost no effect)); P: chickweed, herbicidal effect grade (chickweed; [3]): 0 (Herbicidal rate of 5% or less (almost no effect)); R: persian speedwell, herbicidal effect grade (persian speedwell; [3]): 0 (Herbicidal rate of 5% or less (almost no effect))

— patent publication US20230085307A1, “PYRIDAZINONE COMPOUND AND HERBICIDE” (NISSAN CHEMICAL CORPORATION, priority 2019, published 2023)
